Here are results for 27 compounds from US20100081679A1, “DIAMINOPYRIMIDINES AS FUNGICIDES” (Bayer CropScience AG, priority 2007, published 2010).

Marks after values point to notes of the source that are not given here.

The first data set in a line: logP determination via retention times, calibrated with unbranched alkan-2-ones. Type of data set: physicochemical. The conditions noted are these: HPLC on reversed-phase C18, method *: 40° C., 0.1% aqueous formic acid and acetonitrile, linear gradient 10% to 95% acetonitrile.
`CCC(C)c1ccc(Nc2ncc(Cl)c(NC3CC3)n2)cc1` (racemic) [compound 954]: the logP was 2.77*.
Take `CCC(C)Oc1cc(Nc2ncc(Cl)c(NC3CC3)n2)ccc1C` (racemic) [compound 955]: the logP was 2.99*.
On the same count and under the same terms, the result for `CC[S+]([O-])c1cccc(Nc2ncc(Br)c(NC3CC3)n2)c1` (racemic) [compound 958] reads 1.59*; that for `OC(c1cccc(Nc2ncc(Cl)c(NC3CC3)n2)c1)C(F)(F)F` (racemic) [compound 961], 1.79*.
On the same count and under the same terms, the value for `COC(C)c1cccc(Nc2ncc(C(F)(F)F)c(NCC3CC3)n2)c1` (racemic) [compound 962] was 3.29*.

The same data set, now with this note: method **: HPLC reversed-phase C 18, 43° C., 0.1% aqueous phosphoric acid and acetonitrile, linear gradient 10% to 95% acetonitrile.
As to `CC(=O)c1cccc(Nc2ncc(Cl)c(NC3CC3)n2)c1` [Example 5], the logP was 1.84**.
Turning to `CN(C)S(=O)(=O)c1ccc(Nc2ncc(Cl)c(NC3CC3)n2)cc1` [Example 6], the logP was 2.26**.
On the same count and under the same terms, the result for `Clc1cnc(Nc2ccccc2)nc1NCC1CC1` [Example 10] reads 1.85**.
`COc1cc(Nc2ncc(Cl)c(NCC3CC3)n2)cc(OC)c1OC` [Example 12]: the logP is given as 1.78**.

Still in this data set, the particulars now being: method *: HPLC reversed-phase C18, 40° C., 0.1% aqueous formic acid and acetonitrile, linear gradient 10% to 95% acetonitrile.
With `COc1cc(Nc2ncc(Cl)c(NC3CC3)n2)cc(OC)c1` [Example 3], the logP is recorded as 1.91*.
Same read-out and setting: the value for `COc1cc(Nc2ncc(Cl)c(NC3CC3)n2)cc(OC)c1OC` [Example 4] was 1.73*.

The data set is the same for the next values; noted with them: pH 2.3; read-out: logP (pH2.3).
For `CCOC1(Nc2nc(Cl)ncc2Cl)CC1` [2,5-Dichloro-N-(1-ethoxycyclopropyl)pyrimidine-4-amine], the chromatographic logP is 2.09.
Same read-out and setting: the value for `Clc1ncc(Cl)c(NC2CC2)n1` [2,5-Dichloro-N-cyclopropylpyrimidine-4-amine] was 1.79.
Consider `CC(Nc1nc(Cl)ncc1Cl)C1CC1` (stereo not shown) [2,5-dichloro-N-(1-cyclopropylethyl)pyrimidine-4-amine], for which the chromatographic logP stood at 2.97.
Still for that read-out and setting: the value for `Clc1ncc(Cl)c(NCC2CC2)n1` [2,5-dichloro-N-(cyclopropylmethyl)pyrimidine-4-amine] was 2.51; that for `O=c1[nH]c(Nc2ccccc2)ncc1Cl` [2-Anilino-5-chloropyrimidin-4(3H)-one] was 1.56.
On the same count and under the same terms, the result for `FC(F)(F)c1cnc(Cl)nc1NCC1CC1` [2-chloro-N-(cyclopropylmethyl)-5-trifluoromethylpyrimidine-4-amine] reads 3.4.
As for `Fc1cnc(Cl)nc1NC1CC1` [2-chloro-N-cyclopropyl-5-fluoropyrimidine-4-amine], the chromatographic logP was determined as 1.42.
Same read-out and setting: the value for `Clc1ncc(I)c(NC2CC2)n1` [2-chloro-N-cyclopropyl-5-iodopyrimidine-4-amine] was 2.19; that for `COc1cnc(Cl)nc1NC1CC1` [2-chloro-N-cyclopropyl-5-methoxypyrimidine-4-amine] was 1.38; that for `Cc1cnc(Cl)nc1NC1CC1` [2-chloro-N-cyclopropyl-5-methylpyrimidine-4-amine] was 1.28.
As for `FC(F)(F)c1cnc(Cl)nc1NC1CC1` [2-chloro-N-cyclopropyl-5-trifluoromethylpyrimidine-4-amine], the chromatographic logP came to 2.39.
The same measure, in the same setting: the value for `Clc1cnc(Nc2ccccc2)nc1Cl` [4,5-Dichloro-N-phenylpyrimidine-2-amine] was 3.52.
For the compound `O=C(O)c1ccc(Nc2ncc(Cl)c(NC3CC3)n2)cc1` [4-{[5-chloro-4-(cyclopropylamino)pyrimidin-2-yl]amino}benzoic acid], the chromatographic logP worked out at 1.55.
The same measure, in the same setting: the value for `Clc1ncc(Br)c(NCC2CC2)n1` [5-bromo-2-chloro-N-(cyclopropylmethyl)pyrimidine-4-amine] was 2.69; that for `Clc1ncc(Br)c(NC2CC2)n1` [5-bromo-2-chloro-N-cyclopropylpyrimidine-4-amine] was 1.97.
Same read-out and setting: the result for `Clc1cnc(Nc2ccccc2)nc1NC1CC1` [Example 2, 5-Chloro-N^4-cyclopropyl-N^2-phenylpyrimidine-2,4-diamine] reads 1.61.

The data set is the same for the next values; noted with them: reversed-phase C18 HPLC column; method *: HPLC reversed-phase C 18, 40° C., 0.1% aqueous formic acid and acetonitrile, linear gradient 10% to 95% acetonitrile; read-out: logP.
In the case of `Clc1cnc(Nc2ccccc2)nc1NC1CC1` [Example 2, 5-Chloro-N^4-cyclopropyl-N^2-phenylpyrimidine-2,4-diamine], the chromatographic logP was found to be 1.61.
